Laboratory results reported in ChEMBL document CHEMBL1158285, “Constituents from the stem wood of Euphorbia quinquecostata with phorbol dibutyrate receptor-binding inhibitory activity” (J Nat Prod, 1996).
The source made the active and inactive calls. The rule behind the calls is not given here.

Target: not listed separately
Experiment: (§1) Displacement of [3H]PDBu from PKC in calf brain homogenate
Type: tissue-based, Bos taurus

Compared with C=C1C[C@@]23CC[C@@H]4C(C)(C)C(=O)CC[C@@]4(C)[C@@H]2C[C@@H]1[C@H](O)C3=O, CC1(C)C(=O)CC[C@]2(C)[C@@H]1CC[C@@]13CC[C@@H](C[C@H]12)[C@](O)(CO)C3 is lower in IC50: > 630 µM for the first, 66 µM for the second. The second is the more potent here.

Compared with CCCCCCCCCCCCCCCC(=O)OCC1=C[C@@H]2C(=O)[C@]3(C=C(C)[C@H](OC(C)=O)[C@@]3(O)[C@@H]1OC(C)=O)[C@H](C)C[C@@H]1[C@H]2[C@]1(C)COC(C)=O, CCCCCCCCCCCCCCCC(=O)OCC1=C[C@@H]2C(=O)[C@]3(C=C(C)[C@H](O)[C@@]3(O)[C@@H]1O)[C@H](C)C[C@@H]1[C@H]2[C@]1(C)CO is lower in IC50: > 275 µM for the first, 0.023 µM for the second. The second is the more potent here.

Compared with CCCCCCCCCCCCCCCC(=O)OCC1=C[C@@H]2C(=O)[C@]3(C=C(C)[C@H](O)[C@@]3(O)[C@@H]1O)[C@H](C)C[C@@H]1[C@H]2C1(C)C, CC1(C)[C@H](O)CC[C@]2(C)[C@@H]1CC[C@@]13CC[C@@H](C[C@H]12)[C@](O)(CO)C3 is 14-fold higher in IC50: 5.3 µM for the first, 73 µM for the second. The first is the more potent here.

Organism: Bos taurus
Experiment: as §1
Type: tissue-based

In the case of COc1cc(OC)c(C(=O)CO)c(O)c1C, the Activity is reported as “inactive”.
